Measured values published in patent publication US20240376094A2, “SELECTIVE BCL-XL PROTAC COMPOUNDS AND METHODS OF USE” (Les Laboratoires Servier, priority 2021, published 2024).

Experiments:
Format in all cases: cell-based
NCI-H1650 = test: CellTiter-Glo 3D proliferation assay, NCI-H1650 spheroids; details: Homo sapiens, NCI-H1650, 120 h, 5 days; for Emax: read-out: NCI-H1650 Span (Amax)
In short: (§1)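 Both lines grown in RPMI-1640 + 10% FBS. COR-L105 plated flat at 1,000 cells/well overnight; NCI-H1650 grown as spheroids, 3,000 cells/well, 72 h. Compounds at 0.508 nM-10 μM final for 5 days, 37° C. ATP read by CellTiter-Glo (3D version for spheroids); IC50 from variable-slope fit normalized to untreated cells.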

COR-L105 = test: CellTiter-Glo proliferation assay, COR-L105; details: Homo sapiens, COR-L105, 120 h, COR-L105, 5 days; for Emax: read-out: COR-L105 Span (max)
In short: as §1

endogenous BCL-xL = target: T1, endogenous BCL-xL (Homo sapiens, UniProt Q07817); test: Degradation of endogenous BCL-xL in COR-L105 (ProteinSimple Jess); details: COR-L105, 24 h, COR-L105, dose 300 nM, read-out: % BCL-xL vs. Untreated, COR-L105
T1 construct: endogenous in cells; host or cells: COR-L105 (ECACC No. 92031918); NCI-H1650 (ATCC No. CRL-5883)
Method: The BCL-xL degrader low molecular weight compounds were tested against two endogenous cancer cell lines: • COR-L105: ECACC No. 92031918 cultured in RPMI-1640+10% FBS • NCI-H1650: (ATCC No. CRL-5883 cultured in RPMI-1640+10% FBS
The ability of the BCL-xL degrader low molecular weight compounds to degrade endogenous BCL-xL was assessed using the ProteinSimple 2-40 kDa Jess Separation Module.
Cell lines were cultured in media that is optimal for their growth at 5% CO2, 37° C. in a tissue culture incubator. Prior to seeding for the degradation assay, the cells were split at least 2 days before the assay to ensure optimal growth density. On the day of seeding, adherent cells were lifted off tissue culture flasks using 0.25% trypsin. Cell viability and cell density were determined using a cell counter (Vi-Cell XR Cell Viability Analyzer, Beckman Coulter). Cells with higher than 85% viability were seeded for the assay.
The COR-L105 and the NCI-H1650 cell line were seeded in 6-well clear TC-treated multiple well plates (Costar® cat. #3516). Cells were seeded at a density of 2,000,000 cells per well in 2.5 mL of standard growth media. Plates were incubated at 5% CO2, 37° C. overnight in a tissue culture incubator. On the day of dosing, BCL-xL degrader low molecular weight compounds and a BCL-xL inhibitor control were prepared at 6× in standard growth media. The prepared drug treatments were then added to the cells resulting in a final concentration of 100-300 nM and a final volume of 3.0 mL per well. A control well of untreated cells was also included in the study. Each drug concentration was tested in singlet. Plates were incubated at 5% CO2, 37° C. for 24 hours in a tissue culture incubator.
After 24 hours, the adherent cells were lifted off tissue culture plates using 0.25% trypsin. Standard growth media was added to quench the trypsin and centrifuged for 5 minutes at 1500 rpm. Cell pellets were washed once with cold PBS and centrifuged for 5 minutes at 1500 rpm. Cells were then washed with 1 mL cold PBS and transferred to a 1.5 mL eppendorf tube. Cells were centrifuged for 10 minutes at ≥10,000 g at 4° C. in a benchtop mini-centrifuge. The entire supernatant was discarded and cells were resuspended thoroughly in 50 μL of RIPA lysis buffer, generated by the manufacturer's protocol (ProteinSimple, Cat. #CBS401: Lysis Kit—RIPA Buffer for Charge Assays). Lysates were incubated on ice for 30 minutes. Following incubation, lysates were spun in a benchtop mini-centrifuge for 15 minutes at full speed at 4° C. Supernatant was carefully transferred to a new eppendorf tube for downstream analysis.
Protein was quantified using a Pierce™ BCA Protein Assay Kit (ThermoFisher, cat #23225) following the manufacturer's instructions. A standard curve was prepared by adding 25 μL of each concentration of reference samples from a Pierce™ Bovine Serum Albumin Standard Pre-Diluted Set (ThermoFisher, cat #23208). Each reference sample was run in duplicate. Testing samples were prepared by diluting cell lysates 1:5 in UltraPure™ DNase/RNase-Free Distilled Water and tested in duplicates of 25 μL each. The BCA working reagent was prepared by addition of 50 parts of BCA Reagent A with 1 part of BCA Reagent B. For each testing well, 200 μL of BCA working reagent was added. The plate was incubated at 37° C. for 30 minutes. A SpectraMax M Series Multi-Mode Microplate Reader was used to measure the absorbance at 562 nm. A standard curve generated by the Pierce™ Bovine Serum Albumin Standard Pre-Diluted Set was used to normalize and calculate the BCA concentration of cell lysates. Only values that fell within the range of the standard curve were accepted for quantification.
The ProteinSimple 2-40 kDa Jess Separation Module was used to detect BCL-xL degradation in treated versus untreated lysates following the manufacturer's instructions (25-Capillary Cartridge, 8 pack, 2-40 kDa, cat #SM W012). […]

T1 sequence (Q07817 whole entry): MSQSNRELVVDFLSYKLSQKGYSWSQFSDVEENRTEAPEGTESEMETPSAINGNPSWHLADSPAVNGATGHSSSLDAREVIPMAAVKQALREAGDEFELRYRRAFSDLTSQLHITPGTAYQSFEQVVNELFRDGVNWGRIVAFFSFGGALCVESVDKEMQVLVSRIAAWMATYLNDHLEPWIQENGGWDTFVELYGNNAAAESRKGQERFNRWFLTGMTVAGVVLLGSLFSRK

IC50 (NCI-H1650) [nM] | remaining activity at 0.3 µM (endogenous BCL-xL) [%] | SMILES | Emax (NCI-H1650) [%] | IC50 (COR-L105) [nM] | Emax (COR-L105) [%]
44.1 | > 90 | Cc1ncsc1-c1ccc([C@H](C)NC(=O)[C@@H]2C[C@@H](O)CN2C(=O)[C@@H](NC(=O)CCC(=O)N2CCN(CCOC34CC5(C)CC(C)(CC(Cn6ncc(-c7ccc(N8CCCc9c8nnc(Nc8nc%10ccccc%10s8)c9C)nc7C(=O)O)c6C)(C5)C3)C4)CC2)C(C)(C)C)cc1 [Example 49, 6-(3-(benzo[d]thiazol-2-ylamino)-4-methyl-6,7-dihydropyrido [2,3-c]pyridazin-8(5H)-yl)-3-(1-(((1r,3s,5R,7S)-3-(2-(4-(4-(((S)-1-((2S,4R)-4-hydroxy-2-(((S)-1-(4-(4-methylthiazol-5-yl)phenyl)ethyl)carbamoyl)pyrrolidin-1-yl)-3,3-dimethyl-1-oxobutan-2-yl)amino)-4-oxobutanoyl)piperazin-1-yl)ethoxy)-5,7-dimethyladamantan-1-yl)methyl)-5-methyl-1H-pyrazol-4-yl)picolinic acid] | 89 | 311 | 92.1
25.9 | 88 | Cc1ncsc1-c1ccc(CNC(=O)[C@@H]2C[C@@H](O)CN2C(=O)[C@@H](NC(=O)C2(F)CC2)C(C)(C)C)c(OCC(=O)N2CCN(CCOC34CC5(C)CC(C)(CC(Cn6ncc(-c7ccc(N8CCCc9c8nnc(Nc8nc%10ccccc%10s8)c9C)nc7C(=O)O)c6C)(C5)C3)C4)CC2)c1 [Example 50, 6-(3-(benzo[d]thiazol-2-ylamino)-4-methyl-6,7-dihydropyrido [2,3-c]pyridazin-8(5H)-yl)-3-(1-(((1r,3s,5R,7S)-3-(2-(4-(2-(2-(((2S,4R)-1-((S)-2-(1-fluorocyclopropane-1-carboxamido)-3,3-dimethylbutanoyl)-4-hydroxypyrrolidine-2-carboxamido)methyl)-5-(4-methylthiazol-5-yl)phenoxy)acetyl)piperazin-1-yl)ethoxy)-5,7-dimethyladamantan-1-yl)methyl)-5-methyl-1H-pyrazol-4-yl)picolinic acid] | 93.8 | 287 | 90.2
2.82 | 28.6 | Cc1ncsc1-c1ccc([C@H](C)NC(=O)[C@@H]2C[C@@H](O)CN2C(=O)[C@@H](NC(=O)CCCCCCCCN2CCN(CC#Cc3ccc(OCCCc4sc(N5CCCc6c5nnc(Nc5nc7ccccc7s5)c6C)nc4C(=O)O)c(F)c3)CC2)C(C)(C)C)cc1 [Example 52, 2-(3-(benzo[d]thiazol-2-ylamino)-4-methyl-6,7-dihydropyrido [2,3-c]pyridazin-8(5H)-yl)-5-(3-(2-fluoro-4-(3-(4-(9-(((S)-1-((2S,4R)-4-hydroxy-2-(((S)-1-(4-(4-methylthiazol-5-yl)phenyl)ethyl)carbamoyl)pyrrolidin-1-yl)-3,3-dimethyl-1-oxobutan-2-yl)amino)-9-oxononyl)piperazin-1-yl)prop-1-yn-1-yl)phenoxy)propyl)thiazole-4-carboxylic acid] | 60.8 | 9.93 | 80.6
4.46 | 48.3 | Cc1ncsc1-c1ccc(CNC(=O)[C@@H]2C[C@@H](O)CN2C(=O)[C@@H](NC(=O)C2(F)CC2)C(C)(C)C)c(OCC(=O)NCCCCCN2CCN(CC#Cc3ccc(OCCCc4sc(N5CCCc6c5nnc(Nc5nc7ccccc7s5)c6C)nc4C(=O)O)c(F)c3)CC2)c1 [Example 53, 2-(3-(benzo[d]thiazol-2-ylamino)-4-methyl-6,7-dihydropyrido [2,3-c]pyridazin-8(5H)-yl)-5-(3-(2-fluoro-4-(3-(4-(5-(2-(2-(((2S,4R)-1-((S)-2-(1-fluorocyclopropane-1-carboxamido)-3,3-dimethylbutanoyl)-4-hydroxypyrrolidine-2-carboxamido)methyl)-5-(4-methylthiazol-5-yl)phenoxy)acetamido)pentyl)piperazin-1-yl)prop-1-yn-1-yl)phenoxy)propyl)thiazole-4-carboxylic acid] | 79.3 | 33.4 | 97.9
